Experimental data taken from patent US4491594A, “Method for treatment of seizures” (Eisai Co., Ltd., priority 1983, dated 1985).

Key:
[1] = system: Wistar rats; test: Chronic toxicity, 26 weeks per os; type: in vivo, male and female Wistar rats; conditions: 6, 60 and 600 mg/kg/day per os, 26 successive weeks
Protocol: Coenzyme Q10 was forcibly administered per os to both male and female Wistar rats at doses of 6, 60 and 600 mg/kg/day for a period of 26 successive weeks. After this testing period, an examination of the general condition, a blood test, a urine test and a morphological observation (macroscopic and histologic) were conducted.

[2] = system: penicillin cortical focus; test: Prevention of EEG spike discharge in penicillin cortical focus model (Co Q10 given before penicillin G); type: in vivo, Male Sprague-Dawley rats; conditions: Table 1, Experimental Example 4; 100 mg/kg Co Q10 first, PCG applied 64 minutes thereafter
From the text: (§1) Male Sprague-Dawley rats each having a body weight in the range of 250 to 350 g were used for the experiment.
(§2) Each test rat, anesthetized with ether and immobilized with succinylcholine was subjected to tracheal intubation and fixed to a stereotaxic instrument under artificial respiration. A hole about 3 mm in diameter was made at a part of the skull corresponding to the left-side sensory-motor cortex and the dura mater was cut out to expose the cerebral cortex surface. The skull was immersed in a physiological saline solution. A 2 mm square filter paper impregnated with […] of penicillin (penicillin G) was then applied directly to the cerebral surface to form a penicillin cortical focus. This focus is a typical epilepsy model.
Each rat skull was bared and screw electrodes, four in all, were fixedly planted at the following four locations: two sites 2 mm to the left and right, respectively, from a position 2 mm forward of the bregma, and two sites 3 mm to the left and right, respectively, from a position 6 mm rearward of the bregma. Unipolar and bipolar electroencephalograms (EEG) were recorded by the electrodes. Electrocardiogram readings were simultaneously taken. […]

[3] = Acute toxicity, mouse; conditions: in vivo, read-out: acute dosages
From the text: (§3) The results of toxicity tests on coenzyme Q10 used in this invention are shown below.

[4] = Acute toxicity, rat; conditions: in vivo, read-out: acute dosages
From the text: as §3

[5] = Solubility; type: physicochemical
[6] = system: penicillin cortical focus; test: EEG spike discharge in penicillin cortical focus epilepsy model (Co Q10 given after penicillin G); type: in vivo, Male Sprague-Dawley rats
From the text: as §1, §2
Each rat skull was bared and screw electrodes, four in all, were fixedly planted at the following four locations: two sites 2 mm to the left and right, respectively, from a position 2 mm forward of the bregma, and two sites 3 mm to the left and right, respectively, from a position 6 mm rearward of the bregma. Unipolar and bipolar electroencephalograms (EEG) were recorded by the electrodes. Electrocardiogram readings were simultaneously taken. EEG lead measurements were conducted of (1) four bipolar leads comprising a lead from the left sincipital region to the left occipital region, a lead from the right sincipital region to the right occipital region, a lead from the left to the right sincipital region, and a lead from the left to the right occipital region, and (2) four unipolar leads comprising leads from each of the left sincipital region, left occipital region, right sincipital region and right occipital region.
The corticogram shown in FIG. 6 illustrates the procedure employed. The recordings were carried out from 4 epidural electrodes. LF-LO: bipolar recording from left frontal electrode (LF) to left occipital electrode (LO), RF-RO: bipolar recording from right frontal electrode (RF) to right occipital electrode (RO), LF-RF: bipolar recording from LF to RF, LO-RO: bipolar recording from LO to RO, LF-E: unipolar recording from LF, LO-E: unipolar recording from LO, RF-E: unipolar recording from RF, RO-E: unipolar recording from RO.
83.5 U/μl of penicillin G was absorbed into a 2 mm square filter paper and directly applied to the cerebral cortex surface from an opening formed around the left sensory-motor cortex. coenzyme Q10 (Co Q10) was administered intraperitoneally to each rat, and the EEG patterns were recorded in the same way as above. As a control, a solvent alone was administered intraperitoneally to control rats at the same rate.
Further experiments were conducted by the same procedure as used in Experimental Example 1, except that the time of the administration of coenzyme Q10 was changed. The results are shown in Table 1 below as Experimental Examples 2 to 4. In Table 1, PCG represents penicillin G.

[7] = Experimental Example 1, intraperitoneal
[8] = Table 1, Experimental Example 2, 100 mg/kg, 107 minutes after applying PCG
[9] = Table 1, Experimental Example 3, 100 mg/kg, 65 minutes after applying PCG

## COC1=C(OC)C(=O)C(C/C=C(\C)CC/C=C(\C)CC/C=C(\C)CC/C=C(\C)CC/C=C(\C)CC/C=C(\C)CC/C=C(\C)CC/C=C(\C)CC/C=C(\C)CCC=C(C)C)=C(C)C1=O [coenzyme Q10]
[1]
  general condition, blood test, urine test and morphological observation vs control group: No differences at all from the control group were observed
[2]
  time during which no spike discharge occurred: more than 80 minutes
[3]; im, intramuscular
  LD50: 500 mg/kg
[3]; iv, Intravous
  LD50: 250 mg/kg
[3]; oral
  LD50: 4000 mg/kg
[3]; sc, subcutaneous
  LD50: 500 mg/kg
[4]; im, intramuscular
  LD50: 500 mg/kg
[4]; iv, Intravous
  LD50: 250 mg/kg
[4]; oral
  LD50: 4000 mg/kg
[4]; sc, subcutaneous
  LD50: 500 mg/kg
[5]; in chloroform, benzene, carbon tetrachloride, acetone and ether
  solubility: soluble
[5]; in ethanol, water and methanol
  solubility: insoluble
[6]; [7]
  duration of disappearance of the spike discharge: more than 200 minutes
  time to disappearance of the spike discharge after administration of coenzyme Q10: about 10 minutes
[6]; [8]
  duration of disappearance of the spike discharge: more than 120 minutes
  time to disappearance of the spike discharge after administration of Co Q10: 20 min
[6]; [9]
  duration of disappearance of the spike discharge: more than 60 minutes
  time to disappearance of the spike discharge after administration of Co Q10: 19 min
